Measured values from patent publication US4966891A, “Fluorocytidine derivatives” (priority 1987, dated 1990).

What was measured:
Sarcoma 180 = assay: Antitumor testing against Sarcoma 180 (oral, s.c. implanted); format: in vivo, mice; settings: Mus musculus, 336 h, day 14, read-out: Inhibition of tumor growth; for inhibition in vivo at 1500 µmol/kg: 1.5 mmole/kg/day × 7, p.o.; for inhibition in vivo at 3000 µmol/kg: 3.0 mmole/kg/day × 7, p.o.; for inhibition in vivo at 1400 µmol/kg: 1.4 mmole/kg/day × 7, p.o.; for inhibition in vivo at 2700 µmol/kg: 2.7 mmole/kg/day × 7, p.o.
Protocol: (§1) Sarcoma 180 cells (2×10^6 cells) were implanted subcutaneously into mice (20-22 g) on day 0. The compounds of the present invention were administered daily from day 1 through 7 orally. The animals were sacrificed on day 14 and tumors were excised and weighed. The percent inhibition of tumor growth given in Table 1 below was calculated from the formula:
(§2) T=weight of the tumors from the treated group, C=weight of the tumors from the control group.

Meth A fibrosarcoma = assay: Antitumor testing against Meth A fibrosarcoma (oral, s.c. implanted); format: in vivo, mice; settings: Mus musculus, read-out: Inhibition of tumor growth; for inhibition in vivo at 1500 µmol/kg: 1.5 mmole/kg/day × 7, p.o.; for inhibition in vivo at 3000 µmol/kg: 3.0 mmole/kg/day × 7, p.o.; for inhibition in vivo at 800 µmol/kg: 0.8 mmole/kg/day × 7, p.o.
Protocol: as §1, §2
Meth A fibrosarcoma cells (2×10^5 cells) were implanted subcutaneously into mice (21-22 g). The testing against Meth A fibrosarcoma and the calculation of the percent inhibition of tumor growth were effected according to a manner analogous to that of the testing against Sarcoma 180.

CC(=O)Nc1nc(=O)n([C@@H]2O[C@H](C)[C@@H](O)[C@H]2O)cc1F [Example 2, N^4-acetyl-5'-deoxy-5-fluorocytidine]
inhibition in vivo at 1500 µmol/kg (Sarcoma 180): 84% | inhibition in vivo at 3000 µmol/kg (Sarcoma 180): 91%

CCCCCCCCC(=O)Nc1nc(=O)n([C@@H]2O[C@H](C)[C@@H](O)[C@H]2O)cc1F [Example 6, 5'-deoxy-5-fluoro-N^4-nonanoylcytidine]
inhibition in vivo at 500 µmol/kg (Sarcoma 180; 0.5 mmole/kg/day × 7, p.o.): 28% | inhibition in vivo at 1500 µmol/kg (Sarcoma 180): 76%

CCCCCCCCCCCCCCCC(=O)Nc1nc(=O)n([C@@H]2O[C@H](C)[C@@H](O)[C@H]2O)cc1F [Example 7, 5'-deoxy-5-fluoro-N^4-hexadecanoylcytidine]
inhibition in vivo at 1400 µmol/kg (Sarcoma 180): 57% | inhibition in vivo at 2700 µmol/kg (Sarcoma 180): 84%

CCCCCCCCCCCCCCCCCC(=O)Nc1nc(=O)n([C@@H]2O[C@H](C)[C@@H](O)[C@H]2O)cc1F [Example 8, 5'-deoxy-5-fluoro-N^4-octadecanoylcytidine]
inhibition in vivo at 1400 µmol/kg (Sarcoma 180): 20% | inhibition in vivo at 2700 µmol/kg (Sarcoma 180): 77%

C[C@H]1O[C@@H](n2cc(F)c(NC(=O)C(C)(C)C)nc2=O)[C@H](O)[C@@H]1O [Example 10, 5'-deoxy-5-fluoro-N^4-pivaloylcytidine]
inhibition in vivo at 1500 µmol/kg (Sarcoma 180): 74% | inhibition in vivo at 3000 µmol/kg (Sarcoma 180): 97%

C[C@H]1O[C@@H](n2cc(F)c(NC(=O)Cc3ccccc3)nc2=O)[C@H](O)[C@@H]1O [Example 14]
inhibition in vivo at 1500 µmol/kg (Meth A fibrosarcoma): 66% | inhibition in vivo at 3000 µmol/kg (Meth A fibrosarcoma): 94%

C[C@H]1O[C@@H](n2cc(F)c(NC(=O)c3ccccc3)nc2=O)[C@H](O)[C@@H]1O [Example 16, N^4-benzoyl-5'-deoxy-5-fluorocytidine]
inhibition in vivo at 800 µmol/kg (Meth A fibrosarcoma): 38% | inhibition in vivo at 1500 µmol/kg (Meth A fibrosarcoma): 58%

Cc1cccc(C(=O)Nc2nc(=O)n([C@@H]3O[C@H](C)[C@@H](O)[C@H]3O)cc2F)c1 [Example 18]
inhibition in vivo at 1500 µmol/kg (Meth A fibrosarcoma): 51% | inhibition in vivo at 3000 µmol/kg (Meth A fibrosarcoma): 91%

Cc1ccccc1C(=O)Nc1nc(=O)n([C@@H]2O[C@H](C)[C@@H](O)[C@H]2O)cc1F [Example 19]
inhibition in vivo at 1500 µmol/kg (Meth A fibrosarcoma): 3% | inhibition in vivo at 3000 µmol/kg (Meth A fibrosarcoma): 64%

C[C@H]1O[C@@H](n2cc(F)c(NC(=O)c3ccc(Cl)cc3)nc2=O)[C@H](O)[C@@H]1O [Example 20]
inhibition in vivo at 1500 µmol/kg (Meth A fibrosarcoma): 53% | inhibition in vivo at 3000 µmol/kg (Meth A fibrosarcoma): 84%

C[C@H]1O[C@@H](n2cc(F)c(NC(=O)c3cccc(Cl)c3)nc2=O)[C@H](O)[C@@H]1O [Example 21]
inhibition in vivo at 800 µmol/kg (Meth A fibrosarcoma): 17% | inhibition in vivo at 1500 µmol/kg (Meth A fibrosarcoma): 60%

C[C@H]1O[C@@H](n2cc(F)c(NC(=O)c3ccccc3Cl)nc2=O)[C@H](O)[C@@H]1O [Example 22]
inhibition in vivo at 1500 µmol/kg (Meth A fibrosarcoma): 42% | inhibition in vivo at 3000 µmol/kg (Meth A fibrosarcoma): 42%

C[C@H]1O[C@@H](n2cc(F)c(NC(=O)c3ccc(F)cc3)nc2=O)[C@H](O)[C@@H]1O [Example 23, 5'-deoxy-5-fluoro-N^4-(4-fluorobenzoyl)cytidine]
inhibition in vivo at 800 µmol/kg (Meth A fibrosarcoma): 56% | inhibition in vivo at 1500 µmol/kg (Meth A fibrosarcoma): 64%

COc1ccccc1C(=O)Nc1nc(=O)n([C@@H]2O[C@H](C)[C@@H](O)[C@H]2O)cc1F [Example 25]
inhibition in vivo at 1500 µmol/kg (Meth A fibrosarcoma): -6% | inhibition in vivo at 3000 µmol/kg (Meth A fibrosarcoma): 34%

COc1ccc(C(=O)Nc2nc(=O)n([C@@H]3O[C@H](C)[C@@H](O)[C@H]3O)cc2F)cc1OC [Example 26]
inhibition in vivo at 1500 µmol/kg (Meth A fibrosarcoma): 37% | inhibition in vivo at 3000 µmol/kg (Meth A fibrosarcoma): 58%

COc1cc(OC)cc(C(=O)Nc2nc(=O)n([C@@H]3O[C@H](C)[C@@H](O)[C@H]3O)cc2F)c1 [Example 27]
inhibition in vivo at 1500 µmol/kg (Meth A fibrosarcoma): 58% | inhibition in vivo at 3000 µmol/kg (Meth A fibrosarcoma): 91%

COc1ccc(C(=O)Nc2nc(=O)n([C@@H]3O[C@H](C)[C@@H](O)[C@H]3O)cc2F)c(OC)c1 [Example 28]
inhibition in vivo at 1500 µmol/kg (Meth A fibrosarcoma): -13% | inhibition in vivo at 3000 µmol/kg (Meth A fibrosarcoma): -13%

C[C@H]1O[C@@H](n2cc(F)c(NC(=O)c3ccc([N+](=O)[O-])cc3)nc2=O)[C@H](O)[C@@H]1O [Example 29]
inhibition in vivo at 1500 µmol/kg (Meth A fibrosarcoma): 49% | inhibition in vivo at 3000 µmol/kg (Meth A fibrosarcoma): 92%

C[C@H]1O[C@@H](n2cc(F)c(NC(=O)c3cccc([N+](=O)[O-])c3)nc2=O)[C@H](O)[C@@H]1O [Example 30]
inhibition in vivo at 1500 µmol/kg (Meth A fibrosarcoma): 55% | inhibition in vivo at 3000 µmol/kg (Meth A fibrosarcoma): 58%

COC(=O)c1ccc(C(=O)Nc2nc(=O)n([C@@H]3O[C@H](C)[C@@H](O)[C@H]3O)cc2F)cc1 [Example 31, 5'-deoxy-5-fluoro-N^4-(4-methoxycarbonylbenzoyl)cytidine]
inhibition in vivo at 1500 µmol/kg (Meth A fibrosarcoma): 55% | inhibition in vivo at 3000 µmol/kg (Meth A fibrosarcoma): 84%

C[C@H]1O[C@@H](n2cc(F)c(NC(=O)c3ccco3)nc2=O)[C@H](O)[C@@H]1O [Example 36, 5'-deoxy-5-fluoro-N^4-(2-furoyl)cytidine]
inhibition in vivo at 1500 µmol/kg (Meth A fibrosarcoma): 53% | inhibition in vivo at 3000 µmol/kg (Meth A fibrosarcoma): 92%

C[C@H]1O[C@@H](n2cc(F)c(NC(=O)c3cccs3)nc2=O)[C@H](O)[C@@H]1O [Example 37, 5'-deoxy-5-fluoro-N^4-(2-thenoyl)cytidine]
inhibition in vivo at 1500 µmol/kg (Meth A fibrosarcoma): 59% | inhibition in vivo at 3000 µmol/kg (Meth A fibrosarcoma): 86%

C[C@H]1O[C@@H](n2cc(F)c(NC(=O)c3ccc4ccccc4c3)nc2=O)[C@H](O)[C@@H]1O [Example 40, 5'-deoxy-5-fluoro-N^4-(2-naphthoyl)cytidine]
inhibition in vivo at 800 µmol/kg (Meth A fibrosarcoma): 41% | inhibition in vivo at 1500 µmol/kg (Meth A fibrosarcoma): 57%

CCSC(=O)Nc1nc(=O)n([C@@H]2O[C@H](C)[C@@H](O)[C@H]2O)cc1F [Example 44, 5'-deoxy-N^4-(ethylthio)carbonyl-5-fluorocytidine]
inhibition in vivo at 1500 µmol/kg (Meth A fibrosarcoma): 38% | inhibition in vivo at 3000 µmol/kg (Meth A fibrosarcoma): 66%

CCC(=O)Nc1nc(=O)n([C@@H]2O[C@H](C)[C@@H](O)[C@H]2O)cc1F [Example 45, 5'-deoxy-5-fluoro-N^4-propionylcytidine]
inhibition in vivo at 1500 µmol/kg (Meth A fibrosarcoma): 49% | inhibition in vivo at 3000 µmol/kg (Meth A fibrosarcoma): 71%

C[C@H]1O[C@@H](n2cc(F)c(NC(=O)c3ccc4c(c3)OCO4)nc2=O)[C@H](O)[C@@H]1O [Example 48, 5'-deoxy-5-fluoro-N^4-piperonyloylcytidine]
inhibition in vivo at 800 µmol/kg (Meth A fibrosarcoma): 42% | inhibition in vivo at 1500 µmol/kg (Meth A fibrosarcoma): 72%

C=CCC(=O)Nc1nc(=O)n([C@@H]2O[C@H](C)[C@@H](O)[C@H]2O)cc1F [Example 49, N^4-(3-butenoyl)-5'-deoxy-5-fluorocytidine]
inhibition in vivo at 1500 µmol/kg (Meth A fibrosarcoma): 58% | inhibition in vivo at 3000 µmol/kg (Meth A fibrosarcoma): 76%

C[C@H]1O[C@@H](n2cc(F)c(NC(=O)CCc3ccccc3)nc2=O)[C@H](O)[C@@H]1O [Example 52]
inhibition in vivo at 800 µmol/kg (Meth A fibrosarcoma): 41% | inhibition in vivo at 1500 µmol/kg (Meth A fibrosarcoma): 51%

Cc1ccc(C(=O)Nc2nc(=O)n([C@@H]3O[C@H](C)[C@@H](O)[C@H]3O)cc2F)cc1C [Example 53]
inhibition in vivo at 1500 µmol/kg (Meth A fibrosarcoma): 48% | inhibition in vivo at 3000 µmol/kg (Meth A fibrosarcoma): 85%

C[C@H]1O[C@@H](n2cc(F)c(NC(=O)Cc3c[nH]c4ccccc34)nc2=O)[C@H](O)[C@@H]1O [Example 54, 5'-deoxy-5-fluoro-N^4-(3-indolylacetyl)cytidine]
inhibition in vivo at 1500 µmol/kg (Meth A fibrosarcoma): 55% | inhibition in vivo at 3000 µmol/kg (Meth A fibrosarcoma): 85%

C[C@H]1O[C@@H](n2cc(F)c(N)nc2=O)[C@H](OC(=O)c2ccccc2)[C@@H]1OC(=O)c1ccccc1 [Example 57, 2',3'-di-O-benxoyl-5'-deoxy-5-fluorocytidine]
inhibition in vivo at 1500 µmol/kg (Meth A fibrosarcoma): 28% | inhibition in vivo at 3000 µmol/kg (Meth A fibrosarcoma): 56%

C[C@H]1O[C@@H](n2cc(F)c(N)nc2=O)[C@H](O)[C@@H]1OC(=O)c1ccccc1 [Example 59, 3'-O-benzoyl-5'-deoxy-5-fluorocytidine]
inhibition in vivo at 1500 µmol/kg (Meth A fibrosarcoma): 23% | inhibition in vivo at 3000 µmol/kg (Meth A fibrosarcoma): 80%
